Data as given in ChEMBL document CHEMBL2016543, “New tacrine-4-oxo-4H-chromene hybrids as multifunctional agents for the treatment of Alzheimer's disease, with cholinergic, antioxidant, and β-amyloid-reducing properties” (J Med Chem, 2012).
pIC50: −log10 of the molar value. Activity calls are given as the source filed them. No cut-off for these calls is given here. Starred links: 1 amine or outer side, 2 acyl side, 3 side chain; linkers in the order of their positions; H or OH if unused. Non-standard residues stand in square brackets, D forms with d. Residues, ends and D or L forms follow the SMILES beside them. LeuΨ(S-CHOHCH2)Ala = CC(C)C[C@H](N[*:1])[C@@H](O)C[C@@H](C)C(=O)[*:2]

Assays:
Beta-secretase 1 [1] = molecular target: T1, Beta-secretase 1 (Homo sapiens, UniProt P56817)
T1 sequence (P56817 whole entry): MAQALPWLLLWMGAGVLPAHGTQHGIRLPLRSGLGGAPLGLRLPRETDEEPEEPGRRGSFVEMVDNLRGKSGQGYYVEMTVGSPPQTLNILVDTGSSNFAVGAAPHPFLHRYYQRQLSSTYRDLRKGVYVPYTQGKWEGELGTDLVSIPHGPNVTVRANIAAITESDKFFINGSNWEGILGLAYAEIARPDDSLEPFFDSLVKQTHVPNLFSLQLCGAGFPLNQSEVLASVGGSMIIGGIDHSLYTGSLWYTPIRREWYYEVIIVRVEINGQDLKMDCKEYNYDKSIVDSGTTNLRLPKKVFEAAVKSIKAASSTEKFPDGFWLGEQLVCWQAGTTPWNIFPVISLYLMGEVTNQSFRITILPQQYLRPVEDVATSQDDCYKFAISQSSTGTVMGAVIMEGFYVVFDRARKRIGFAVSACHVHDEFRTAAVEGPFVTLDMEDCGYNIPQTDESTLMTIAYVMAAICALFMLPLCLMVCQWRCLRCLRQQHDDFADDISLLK
Description: Inhibition of human recombinant BChE using panvera peptide as substrate preincubated for 60 mins before substrate addition by FRET assay

Cholinesterase [2] = molecular target: Cholinesterase (Equus caballus, UniProt P81908)
Sequence of Cholinesterase (Equus caballus, UniProt P81908) (P81908 whole entry): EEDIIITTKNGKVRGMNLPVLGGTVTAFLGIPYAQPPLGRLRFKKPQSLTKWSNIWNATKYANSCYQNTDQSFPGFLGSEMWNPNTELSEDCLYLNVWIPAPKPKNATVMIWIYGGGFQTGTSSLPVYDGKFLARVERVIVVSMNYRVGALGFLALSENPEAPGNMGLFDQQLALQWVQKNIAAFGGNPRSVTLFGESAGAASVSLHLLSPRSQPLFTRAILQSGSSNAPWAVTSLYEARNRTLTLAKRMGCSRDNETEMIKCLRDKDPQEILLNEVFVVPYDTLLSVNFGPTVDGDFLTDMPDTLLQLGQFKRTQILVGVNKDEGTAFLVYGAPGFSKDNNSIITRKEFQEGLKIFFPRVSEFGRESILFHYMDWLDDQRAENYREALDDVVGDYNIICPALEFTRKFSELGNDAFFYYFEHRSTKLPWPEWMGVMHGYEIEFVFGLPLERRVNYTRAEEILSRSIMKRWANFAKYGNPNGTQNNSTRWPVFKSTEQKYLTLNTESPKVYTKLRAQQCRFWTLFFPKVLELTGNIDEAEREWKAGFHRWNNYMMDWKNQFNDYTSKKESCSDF
Description: (§1) Inhibition of horse serum BChE by Ellman's method

Beta-secretase 1 [3] = molecular target: T1, Beta-secretase 1; assay: Competitive inhibition of human recombinant […] using panvera peptide as substrate preincubated for 60 mins before substrate addition by FRET assay
Acetylcholinesterase [4] = molecular target: Acetylcholinesterase (Homo sapiens, UniProt P22303)
Sequence of Acetylcholinesterase (Homo sapiens, UniProt P22303) (P22303 whole entry): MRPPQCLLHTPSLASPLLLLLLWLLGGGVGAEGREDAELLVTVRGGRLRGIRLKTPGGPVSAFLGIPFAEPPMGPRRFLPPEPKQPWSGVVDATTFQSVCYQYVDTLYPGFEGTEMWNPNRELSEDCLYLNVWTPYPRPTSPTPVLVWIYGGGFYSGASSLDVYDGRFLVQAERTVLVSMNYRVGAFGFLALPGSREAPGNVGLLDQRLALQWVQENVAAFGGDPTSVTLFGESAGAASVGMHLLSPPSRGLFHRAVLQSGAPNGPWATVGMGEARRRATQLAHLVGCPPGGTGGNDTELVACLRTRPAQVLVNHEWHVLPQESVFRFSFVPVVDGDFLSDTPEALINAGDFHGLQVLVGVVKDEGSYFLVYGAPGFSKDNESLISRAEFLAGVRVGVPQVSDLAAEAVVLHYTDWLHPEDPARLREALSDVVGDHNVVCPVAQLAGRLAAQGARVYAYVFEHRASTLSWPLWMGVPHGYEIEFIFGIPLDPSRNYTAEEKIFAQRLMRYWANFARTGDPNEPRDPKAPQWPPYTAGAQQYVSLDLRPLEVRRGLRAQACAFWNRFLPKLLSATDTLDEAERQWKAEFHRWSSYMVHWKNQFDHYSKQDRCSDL
Description: Inhibition of human erythrocytes AChE by Ellman's method

Cholinesterase [5] = molecular target: T2, Cholinesterase (Homo sapiens, UniProt P06276)
T2 sequence (P06276 whole entry): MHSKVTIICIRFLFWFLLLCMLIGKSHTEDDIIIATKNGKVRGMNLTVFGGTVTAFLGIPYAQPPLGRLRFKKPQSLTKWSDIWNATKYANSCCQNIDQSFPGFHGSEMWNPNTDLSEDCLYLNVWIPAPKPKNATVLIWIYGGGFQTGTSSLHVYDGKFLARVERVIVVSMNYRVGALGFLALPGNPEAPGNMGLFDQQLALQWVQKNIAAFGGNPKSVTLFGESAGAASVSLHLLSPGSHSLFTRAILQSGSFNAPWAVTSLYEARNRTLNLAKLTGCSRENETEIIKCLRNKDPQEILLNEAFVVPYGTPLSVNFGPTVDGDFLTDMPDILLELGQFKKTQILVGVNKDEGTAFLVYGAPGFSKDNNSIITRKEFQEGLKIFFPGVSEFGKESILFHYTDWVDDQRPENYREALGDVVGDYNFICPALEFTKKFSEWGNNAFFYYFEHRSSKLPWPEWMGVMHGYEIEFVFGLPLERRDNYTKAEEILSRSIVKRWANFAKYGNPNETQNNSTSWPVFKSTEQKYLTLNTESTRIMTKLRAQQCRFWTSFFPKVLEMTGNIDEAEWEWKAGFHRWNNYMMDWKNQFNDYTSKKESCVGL
Description: Inhibition of human serum BChE by Ellman's method

in vitro = conditions: PAMPA, pH 7.4
Description: Permeability of the compound in phosphate buffer at pH 7.4 by PAMPA

Acetylcholinesterase [6] = molecular target: T3, Acetylcholinesterase (Bos taurus, UniProt P23795)
T3 sequence (P23795 whole entry): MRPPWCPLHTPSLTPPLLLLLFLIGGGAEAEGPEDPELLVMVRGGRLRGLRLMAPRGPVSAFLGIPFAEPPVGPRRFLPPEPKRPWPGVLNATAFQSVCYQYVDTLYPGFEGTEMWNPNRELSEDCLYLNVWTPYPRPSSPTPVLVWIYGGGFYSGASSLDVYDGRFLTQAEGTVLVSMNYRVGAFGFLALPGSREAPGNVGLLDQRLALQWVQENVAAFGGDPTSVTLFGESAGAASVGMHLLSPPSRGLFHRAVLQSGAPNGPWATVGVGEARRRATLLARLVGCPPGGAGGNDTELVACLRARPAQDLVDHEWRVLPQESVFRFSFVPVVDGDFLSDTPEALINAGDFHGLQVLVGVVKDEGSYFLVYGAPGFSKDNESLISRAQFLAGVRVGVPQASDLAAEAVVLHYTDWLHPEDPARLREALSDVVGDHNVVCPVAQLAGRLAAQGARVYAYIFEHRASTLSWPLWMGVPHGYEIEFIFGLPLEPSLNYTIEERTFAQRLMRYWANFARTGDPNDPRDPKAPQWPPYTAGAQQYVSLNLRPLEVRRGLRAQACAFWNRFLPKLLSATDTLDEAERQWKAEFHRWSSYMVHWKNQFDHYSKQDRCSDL
Description: (§2) Inhibition of bovine erythrocytes AChE by Ellman's method

Cholinesterase [7] = molecular target: T2, Cholinesterase; assay: Ratio of tacrine IC50 to compound IC50 for human serum BChE
[8] = molecular target: Cholinesterase (Equus caballus) (UniProt P81908)
Sequence of Cholinesterase (Equus caballus) (P81908 whole entry): as the sequence (P81908 whole entry) above
Description: as §1

[9] = molecular target: T4, Acetylcholinesterase (Bos taurus) (UniProt P23795)
T4 sequence (whole entry): T3 sequence (P23795 whole entry)
Description: as §2

Structure (SMILES)	pIC50 (Beta-secretase 1 [1])	pIC50 (Cholinesterase [2])	Kic (Beta-secretase 1 [3]) [µM]	pIC50 (Acetylcholinesterase [4])	pIC50 (Cholinesterase [5])	Papp (in vitro) [×10⁻⁶ cm/s]	pIC50 (Acetylcholinesterase [6])	Ratio IC50 (Cholinesterase [7])	inhibition [8]	inhibition [9]
COc1ccc2oc(C(=O)NCCCCCCCCCCNc3c4c(nc5cc(Cl)ccc35)CCCC4)cc(=O)c2c1.Cl	4.84	9.37	4.23	10.00	10.00	7.5	8.30	–	–	–
COc1cc2oc(C(=O)NCCCCCCCCCCNc3c4c(nc5ccccc35)CCCC4)cc(=O)c2cc1OC.Cl	5.52	9.26	0.88	8.74	7.82	15	7.07	–	–	–
COc1cc(OC)c2c(=O)cc(C(=O)NCCCCCCCCCCNc3c4c(nc5ccccc35)CCCC4)oc2c1.Cl	5.68	9.49	0.62	8.64	10.00	14.7	7.00	–	–	–
O=C(NCCCCCCCCCCNc1c2c(nc3cc(Cl)cc(Cl)c13)CCCC2)c1cc(=O)c2ccccc2o1	–	7.00	–	–	–	–	6.00	–	–	–
O=C(NCCCCCCCCCCNc1c2c(nc3cc(Cl)cc(Cl)c13)CCCC2)c1cc(=O)c2cc(O)ccc2o1	–	7.76	–	–	–	–	6.46	–	–	–
COc1ccc2oc(C(=O)NCCCCCCCCCCNc3c4c(nc5ccccc35)CCCC4)cc(=O)c2c1.Cl	–	9.49	–	9.11	10.42	14.9	7.46	1050	–	–
CC(C)C[C@H](NC(=O)[C@H](CC(N)=O)NC(=O)[C@@H](NC(=O)[C@@H](N)CC(=O)O)C(C)C)[C@@H](O)C[C@@H](C)C(=O)N[C@@H](C)C(=O)N[C@@H](CC(=O)O)C(=O)N[C@@H](Cc1ccccc1)C(=O)O (H-DVN[LeuΨ(S-CHOHCH2)Ala]ADF-OH)	7.48	–	0.0097	–	–	–	–	–	–	–
Cl.O=C(NCCCCCCCCCCNc1c2c(nc3cc(Cl)ccc13)CCCC2)c1cc(=O)c2cc(O)c(O)cc2o1	4.87	7.55	3.99	10.05	7.02	5.3	7.76	–	–	–
O=C(NCCCCCCCNc1c2c(nc3ccccc13)CCCC2)c1cc(=O)c2ccccc2o1	–	8.76	–	–	–	–	7.00	–	–	–
COc1cc(OC)c2c(=O)cc(C(=O)NCCCCCCCCCCNc3c4c(nc5cc(Cl)ccc35)CCCC4)oc2c1.Cl	–	9.00	–	9.46	10.00	10.7	7.30	–	–	–
O=C(O)c1cc(=O)c2ccccc2o1	–	–	–	–	–	–	–	–	inactive	inactive
COc1cc2oc(C(=O)NCCCCCCCCCCNc3c4c(nc5cc(Cl)cc(Cl)c35)CCCC4)cc(=O)c2cc1OC	–	7.00	–	–	–	–	6.76	–	–	–
Cl.O=C(NCCCCCCCCCCNc1c2c(nc3ccccc13)CCCC2)c1cc(=O)c2cc(O)c(O)cc2o1	–	8.10	–	8.19	7.52	6.3	6.52	–	–	–
O=C(NCCCCCCCCCCCCNc1c2c(nc3ccccc13)CCCC2)c1cc(=O)c2ccccc2o1	–	9.60	–	–	–	–	6.82	–	–	–
O=c1cc(-c2ccc(O)cc2)oc2cc(O)cc(O)c12 [APIGENIN]	4.41	–	11.3	–	–	–	–	–	–	–
Cl.O=C(NCCCCCCCCCCNc1c2c(nc3cc(Cl)ccc13)CCCC2)c1cc(=O)c2c(O)cc(O)cc2o1	–	8.52	–	10.19	8.60	7.8	8.00	–	–	–

Structure (SMILES)	pIC50 (Beta-secretase 1 [1])	pIC50 (Cholinesterase [2])	Kic (Beta-secretase 1 [3]) [µM]	pIC50 (Acetylcholinesterase [4])	pIC50 (Cholinesterase [5])	Papp (in vitro) [×10⁻⁶ cm/s]	pIC50 (Acetylcholinesterase [6])	Ratio IC50 (Cholinesterase [7])	inhibition [8]	inhibition [9]
Cl.O=C(NCCCCCCCCCCNc1c2c(nc3ccccc13)CCCC2)c1cc(=O)c2c(O)cc(O)cc2o1	5.44	9.46	1.06	8.64	9.10	13.1	6.30	–	–	–
COc1cc(OC)c2c(=O)cc(C(=O)NCCCCCCCCCCNc3c4c(nc5cc(Cl)cc(Cl)c35)CCCC4)oc2c1	–	9.12	–	–	–	–	6.82	–	–	–
Cl.O=C(NCCCCCCCCCCNc1c2c(nc3cc(Cl)ccc13)CCCC2)c1cc(=O)c2cc(O)ccc2o1	–	8.46	–	9.00	8.82	11.5	7.10	–	–	–
Cl.O=C(NCCCCCCCCCCNc1c2c(nc3ccccc13)CCCC2)c1cc(=O)c2cc(O)ccc2o1	5.55	9.00	0.82	8.10	8.82	23.1	7.12	–	–	–
COc1cc(O)c2c(=O)cc(C(=O)NCCCCCCCCCCNc3c4c(nc5ccccc35)CCCC4)oc2c1.Cl	5.54	8.70	0.85	9.00	9.00	10.6	6.60	–	–	–
Cl.O=C(NCCCCCCCCCCNc1c2c(nc3ccccc13)CCCC2)c1cc(=O)c2ccccc2o1	–	9.74	–	7.76	9.82	9.1	7.12	–	–	–
O=C(NCCCCCCCCCCNc1c2c(nc3cc(Cl)cc(Cl)c13)CCCC2)c1cc(=O)c2cc(O)c(O)cc2o1	–	7.06	–	–	–	–	7.05	–	–	–
COc1ccc2oc(C(=O)NCCCCCCCCCCNc3c4c(nc5cc(Cl)cc(Cl)c35)CCCC4)cc(=O)c2c1	–	8.12	–	–	–	–	6.26	–	–	–
O=C(NCCCCCCCCCCNc1c2c(nc3cc(Cl)cc(Cl)c13)CCCC2)c1cc(=O)c2c(O)cc(O)cc2o1	–	7.46	–	–	–	–	7.12	–	–	–
COc1cc(O)c2c(=O)cc(C(=O)NCCCCCCCCCCNc3c4c(nc5cc(Cl)cc(Cl)c35)CCCC4)oc2c1	–	7.46	–	–	–	–	7.10	–	–	–
COc1cc2oc(C(=O)NCCCCCCCCCCNc3c4c(nc5cc(Cl)ccc35)CCCC4)cc(=O)c2cc1OC.Cl	–	9.07	–	9.70	7.30	7.4	8.19	–	–	–
COc1cc(O)c2c(=O)cc(C(=O)NCCCCCCCCCCNc3c4c(nc5cc(Cl)ccc35)CCCC4)oc2c1.Cl	–	9.76	–	10.46	8.30	8.7	7.42	–	–	–
O=C(NCCCCCCCCCNc1c2c(nc3ccccc13)CCCC2)c1cc(=O)c2ccccc2o1	–	9.24	–	–	–	–	6.90	–	–	–
Cl.O=C(NCCCCCCCCCCNc1c2c(nc3cc(Cl)ccc13)CCCC2)c1cc(=O)c2ccccc2o1	4.65	9.74	6.58	9.52	10.10	7.1	8.30	–	–	–
O=C(NCCCCCCCCNc1c2c(nc3ccccc13)CCCC2)c1cc(=O)c2ccccc2o1	–	9.30	–	–	–	–	6.82	–	–	–
